Assays:
NRL = NRL expression in serum-starved Y79 cells (immunoblot, Northern blot); type: cell-based, human; details: for NRL expression (immunoblot): 24 h incubation
Procedure: Cell Culture. Y79 human retinoblastoma cells (ATCC HTB 18) and HEK293 (ATCC CRL-1573) were maintained in RPMI 1640 and Dulbecco's modified Eagle's medium, respectively, under standard conditions with 15% (v/v) fetal bovine serum (FBS), penicillin G (100 units/ml), and streptomycin (100 μg/ml) at 37° C. and 5% CO2. For serum starvation and RA treatment experiments, Y79 cells (5×10^4) were cultured in the presence or absence of the serum (same batch of serum was used in all the experiments), at RA, 9-cis-RA, cycloheximide (CHX), and 4-(E-2-(5,6,7,8-tetrahydro-5,5,8,8-tetramethyl-2-naphthalenl)-1-propenyl) benzoic acid (TTNPB) at indicated concentrations. Me2SO or ethanol was added to Y79 cells in lieu of the soluble factors as negative control.
For protein synthesis inhibition experiments, Y79 cells were serum-starved for 24 h, and then simultaneously treated with RA and CHX for 8 or 24 h. NRL expression was analyzed by immunoblotting. In another set of experiments, serum-starved Y79 cells were first incubated with RA alone for 8 or 24 h and then CHX was added. Cell extracts were then analyzed 24 h later for examining NRL expression by immunoblotting.
Protein Expression Analysis.

mGluR8 = molecular target: T1, mGluR8 (Mus musculus, UniProt P47743); test: Calcium imaging (Fura Red) of whole-mount transplanted retinas, mGluR8 stimulation; type: cell-based; details: for changes in intracellular calcium ([Ca2+]i) on agonist application: recipient and Nrl.gfp-positive integrated rod cells, DCPG 20 μM in bath
T1 construct: from tissue; host or cells: whole-mount mouse neural retina; integrated Nrl.gfp-positive donor rods and recipient photoreceptors
T1 sequence (P47743 34-908): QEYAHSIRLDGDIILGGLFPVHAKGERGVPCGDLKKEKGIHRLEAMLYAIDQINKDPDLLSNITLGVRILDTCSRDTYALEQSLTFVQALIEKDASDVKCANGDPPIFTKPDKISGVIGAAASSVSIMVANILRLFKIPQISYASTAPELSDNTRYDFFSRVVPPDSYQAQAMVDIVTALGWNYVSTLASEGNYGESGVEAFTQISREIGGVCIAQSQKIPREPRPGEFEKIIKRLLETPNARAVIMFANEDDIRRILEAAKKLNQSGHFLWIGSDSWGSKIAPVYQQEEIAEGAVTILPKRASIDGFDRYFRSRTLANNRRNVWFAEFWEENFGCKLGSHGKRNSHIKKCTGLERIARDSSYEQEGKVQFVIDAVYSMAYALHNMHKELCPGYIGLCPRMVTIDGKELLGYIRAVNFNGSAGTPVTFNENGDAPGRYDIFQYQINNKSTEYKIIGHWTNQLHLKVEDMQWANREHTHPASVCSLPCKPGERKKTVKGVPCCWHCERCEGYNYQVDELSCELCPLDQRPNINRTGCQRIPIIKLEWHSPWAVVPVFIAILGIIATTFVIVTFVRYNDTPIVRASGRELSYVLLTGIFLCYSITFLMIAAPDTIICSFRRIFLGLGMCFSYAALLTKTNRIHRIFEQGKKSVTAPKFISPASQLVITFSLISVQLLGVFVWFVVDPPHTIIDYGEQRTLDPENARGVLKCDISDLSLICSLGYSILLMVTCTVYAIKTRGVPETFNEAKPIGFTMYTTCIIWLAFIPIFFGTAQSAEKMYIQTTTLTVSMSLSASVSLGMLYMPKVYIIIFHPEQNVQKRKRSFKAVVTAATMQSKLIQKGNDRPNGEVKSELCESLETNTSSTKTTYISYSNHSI
Procedure: (§1) Calcium Imaging. Retinas transplanted with Nrl.gfp^+/+ P1 cells were dissected free of all surrounding tissue. Whole-mount neural retinas were loaded with Fura Red-AM (15 μM, Molecular Probes) and the dispersant Cremophor-EL (0.03%, Sigma) for 1.5 hrs at 36° C. and then de-esterified in fresh DMEM-F12 (without phenol red) for 30 mins at 36° C. Retinas were transferred to the stage of an inverted microscope (SP2, Leica, UK) and held flat under a nylon-strung platinum wire ‘harp’. XY images were taken through the cell bodies in the inner region of the ONL, nearest the outer plexiform layer, where rod (as opposed to cone, which lie at the outer edge of the ONL) photoreceptor nuclei reside. Images were acquired at 3 sec intervals and analysed off-line. Cells were selected at random and the mean fluorescence of individual cells was calculated and normalised against the fluorescence at time 0s. Drugs were applied by micro-pipette injection into the bathing solution.
(§2) Drugs. DCPG ((S)-3,4-dicarboxyphenylglycine) (20 μM; final concentration in bath), CPPG ((RS)-alpha-cyclopropyl-4-phosphonophenylglycine) (100 μM) and NMDA (N-methyl-D-aspartate) (200 μM) were supplied by Tocris (UK).

NMDA receptor = test: Calcium imaging (Fura Red) of whole-mount transplanted retinas, NMDA receptor agonist; type: cell-based, mouse; details: NMDA 200 μM; photoreceptors
Procedure: as §1, §2

[1] = molecular target: T2, CEP290 (wild-type mouse centrosomal protein CEP290, endogenous, retina) (mouse, UniProt Q6A078 1-2472); test: co-immunoprecipitation from retinal extracts, immunoblot
T2 construct: range 1-2472; Endogenous protein in retinal extracts; alternatively spliced lower-mass isoforms are also mentioned; also called WT protein; full-length CEP290
T2 sequence (Q6A078 whole entry, canonical isoform): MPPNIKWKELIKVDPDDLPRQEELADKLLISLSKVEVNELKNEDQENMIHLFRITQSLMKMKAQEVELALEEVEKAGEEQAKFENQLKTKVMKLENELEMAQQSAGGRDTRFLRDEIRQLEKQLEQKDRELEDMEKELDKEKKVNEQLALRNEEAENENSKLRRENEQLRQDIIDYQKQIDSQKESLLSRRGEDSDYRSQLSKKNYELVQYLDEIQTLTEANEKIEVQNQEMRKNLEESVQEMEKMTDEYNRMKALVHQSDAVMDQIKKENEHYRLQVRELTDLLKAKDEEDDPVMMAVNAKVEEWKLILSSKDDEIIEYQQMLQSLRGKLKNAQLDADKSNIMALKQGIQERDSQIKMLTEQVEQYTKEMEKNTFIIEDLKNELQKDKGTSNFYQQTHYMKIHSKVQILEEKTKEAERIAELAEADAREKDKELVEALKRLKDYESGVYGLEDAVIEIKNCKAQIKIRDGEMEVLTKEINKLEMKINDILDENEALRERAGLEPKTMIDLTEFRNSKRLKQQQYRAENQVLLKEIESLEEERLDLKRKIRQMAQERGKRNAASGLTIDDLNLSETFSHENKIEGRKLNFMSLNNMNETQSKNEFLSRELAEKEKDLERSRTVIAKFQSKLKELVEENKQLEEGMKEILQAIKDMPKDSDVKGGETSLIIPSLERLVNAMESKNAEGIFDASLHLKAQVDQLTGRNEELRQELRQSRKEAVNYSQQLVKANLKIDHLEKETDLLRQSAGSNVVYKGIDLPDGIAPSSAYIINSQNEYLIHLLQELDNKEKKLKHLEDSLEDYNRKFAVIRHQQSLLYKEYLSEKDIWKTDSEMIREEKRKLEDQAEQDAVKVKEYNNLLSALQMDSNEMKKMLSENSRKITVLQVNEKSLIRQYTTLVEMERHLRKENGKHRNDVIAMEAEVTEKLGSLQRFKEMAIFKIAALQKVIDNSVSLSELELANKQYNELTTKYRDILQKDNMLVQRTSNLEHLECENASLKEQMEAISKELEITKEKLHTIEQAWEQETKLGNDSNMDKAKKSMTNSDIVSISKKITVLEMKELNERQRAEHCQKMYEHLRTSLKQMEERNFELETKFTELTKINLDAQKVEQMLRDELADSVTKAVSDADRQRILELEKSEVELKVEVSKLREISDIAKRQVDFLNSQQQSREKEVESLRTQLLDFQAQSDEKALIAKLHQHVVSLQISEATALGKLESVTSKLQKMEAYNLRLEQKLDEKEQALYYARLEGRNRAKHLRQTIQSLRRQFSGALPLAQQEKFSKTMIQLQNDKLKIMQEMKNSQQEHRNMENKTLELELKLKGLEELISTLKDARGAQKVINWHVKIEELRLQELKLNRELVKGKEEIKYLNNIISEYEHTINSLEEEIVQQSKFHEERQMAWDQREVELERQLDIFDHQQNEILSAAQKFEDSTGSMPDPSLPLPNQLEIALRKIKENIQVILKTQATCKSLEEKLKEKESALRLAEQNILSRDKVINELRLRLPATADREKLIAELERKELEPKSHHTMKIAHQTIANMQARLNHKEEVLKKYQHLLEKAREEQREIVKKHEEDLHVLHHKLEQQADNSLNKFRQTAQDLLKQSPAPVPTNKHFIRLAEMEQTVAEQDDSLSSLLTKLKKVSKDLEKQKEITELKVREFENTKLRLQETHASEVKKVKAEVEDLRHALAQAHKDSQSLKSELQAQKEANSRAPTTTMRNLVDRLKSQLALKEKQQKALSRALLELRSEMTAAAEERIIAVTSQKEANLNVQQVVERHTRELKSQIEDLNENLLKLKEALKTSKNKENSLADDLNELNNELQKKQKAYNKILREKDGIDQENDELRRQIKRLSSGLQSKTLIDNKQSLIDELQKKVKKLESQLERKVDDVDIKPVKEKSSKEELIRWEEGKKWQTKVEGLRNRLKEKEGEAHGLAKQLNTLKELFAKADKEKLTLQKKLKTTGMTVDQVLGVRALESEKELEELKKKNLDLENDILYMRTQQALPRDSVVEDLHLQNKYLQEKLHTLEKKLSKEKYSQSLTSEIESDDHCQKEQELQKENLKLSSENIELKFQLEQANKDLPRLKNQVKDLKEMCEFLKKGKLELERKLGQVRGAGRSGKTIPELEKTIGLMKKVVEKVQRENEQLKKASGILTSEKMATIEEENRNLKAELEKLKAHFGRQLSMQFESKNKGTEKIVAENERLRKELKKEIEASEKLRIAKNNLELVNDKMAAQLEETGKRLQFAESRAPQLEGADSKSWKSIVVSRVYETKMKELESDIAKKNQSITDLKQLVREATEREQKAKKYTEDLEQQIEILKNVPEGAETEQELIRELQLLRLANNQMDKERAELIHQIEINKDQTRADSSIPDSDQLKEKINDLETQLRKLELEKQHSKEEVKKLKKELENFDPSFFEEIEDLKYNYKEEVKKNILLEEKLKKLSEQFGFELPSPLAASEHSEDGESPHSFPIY

[2] = molecular target: ΔCEP290 (truncated CEP290 of the rd16 mouse, in-frame deletion of amino acid residues 1599-1897) (mouse) (UniProt Q6A078); test: co-immunoprecipitation with ORF15^CP antibody from rd16 vs WT retinal extract, immunoblot for CEP290

For `CC1=C(/C=C/C(C)=C\C=C\C(C)=C\C(=O)O)C(C)(C)CCC1` [9-cis RA, 9-cis-RA], the “NRL expression (immunoblot)” value (NRL; serum-starved Y79 cells) was “dose-dependent increase in NRL expression”.

`N[C@H](C(=O)O)c1ccc(C(=O)O)c(C(=O)O)c1` [DCPG, (S)-3,4-dicarboxyphenylglycine] was tested, and the “changes in intracellular calcium ([Ca2+]i) on agonist application” value (mGluR8) was “consistently evoked changes in ([Ca^2+]i)”.

For `CN[C@H](CC(=O)O)C(=O)O` [NMDA, N-methyl-D-aspartate], the “effect of NMDA receptor agonist on [Ca2+]i” value (NMDA receptor) was “showed no effect”.

`NC(C(=O)O)(c1ccc(P(=O)(O)O)cc1)C1CC1` (racemic) [CPPG, (RS)-alpha-cyclopropyl-4-phosphonophenylglycine] was tested, and the “block of the mGluR8 agonist-evoked [Ca2+]i change” value (mGluR8; CPPG 100 μM) was “can be blocked”.

For `C/C(=C\c1ccc(C(=O)O)cc1)c1ccc2c(c1)C(C)(C)CCC2(C)C` [TTNPB, 4-(E-2-(5,6,7,8-tetrahydro-5,5,8,8-tetramethyl-2-naphthalenl)-1-propenyl) benzoic acid], the “NRL expression (immunoblot)” value (NRL; serum-starved Y79 cells) was “mimicked”.

For `C[C@@H]1C[C@@H]([C@H](O)CC2CC(=O)NC(=O)C2)C(=O)[C@@H](C)C1` [CHX, cycloheximide], the “effect on RA-mediated NRL induction, added simultaneously with RA” value (NRL; CHX 20 μg/ml with at RA, serum-starved Y79 cells) was “blocked NRL induction” and the “effect on NRL expression, added after RA pretreatment” value (NRL; cells pretreated with RA for 8 or 24 h, then CHX) was “no detectable effect on NRL expression”.

In the case of `N[C@@H](CCC(=O)O)C(=O)O` [glutamate], the “changes in intracellular calcium ([Ca2+]i) on agonist application” value (mGluR8) is reported as “consistently evoked changes in ([Ca^2+]i)”.

B1: nucleophosmin (NPM) (other, mouse, UniProt Q61937 1-292, looked up)
chain: MEDSMDMDMSPLRPQNYLFGCELKADKDYHFKVDNDENEHQLSLRTVSLGAGAKDELHIVEAEAMNYEGSPIKVTLATLKMSVQPTVSLGGFEITPPVVLRLKCGSGPVHISGQHLVAVEEDAESEDEDEEDVKLLGMSGKRSAPGGGNKVPQKKVKLDEDDEDDDEDDEDDEDDDDDDFDEEETEEKVPVKKSVRDTPAKNAQKSNQNGKDLKPSTPRSKGQESFKKQEKTPKTPKGPSSVEDIKAKMQASIEKGGSLPKVEAKFINYVKNCFRMTDQEAIQDLWQWRKSL
B1: no binding [1].

B2: RPGR-ORF15 (retina-enriched RPGR-ORF15 isoform(s)) (protein, mouse, UniProt Q9R0X5-5 1-1305, looked up)
chain: MAESESLVPDTGAVFTFGKTKFAENIPSKFWFKNDIPICLSCGDEHTAIVTGNNKLYMFGSNNWGQLGLGSKAAIIKPTCIKALKPEKVKLAACGRNHTLVSTDTGGVYAAGGNNEGQLGLGDTDDRDTFHQIVFFTPADTIKQLSAGANTSAALTEDGKLFMWGDNSEGQIGLEDKSNVCIPHEVTVGKPISWISCGYYHSAFVTMDGELYTFGEPENGKLGLPNELLMNHRSPQRVLGIPERVIQVACGGGHTVVLTEKVVYAFGLGQFGQLGLGTFLFETSEPKIIERIKDQKICHISCGENHTALMTELGLLYTFGDGRHGKLGLGMENFTNQFFPTLCSNFLRFAVQLIACGGCHMLVFATPRLGTIDEPKFEDVYEPYISTGSFSINDLSPRSSLNRSLSARLRRRERERPPCSASMVGTLPPLEGTSASTSAYFYPSSPPFHLSVNNYPEKSPSESMEPLDSDYFEDKMNKDTETENSSAVDSENFGETNDILNMTHMMTTSSNEKLLDFSPIQKQQNQDTFEKVMESTPCTENEDSYEYEEMSKIKEVTVYKQYLAKGIYMIRPAEILEAFSDEEVGNGLDQVEEPRVFTDGKGLQSKQVGKESDEEIVSEKKTEVMEVADVKKIRESEENSKSDSLFDDLPDKTMNSESEDNKDIAEERRSSEQNMTFDSETELVEEPDSYMECERHSEQDSAEELEQPKLVEYSSEEKDEKDEKDDDEVETENLWYDRNCTEQETENVFRATRFFPKFDLKHDHLSGIPEEQEGPEDSEGNVVVEQVVQAQKENLEFEGDRKEAKAEAPSDVITEKEVSESERESGGEREDRSEGDGDQICEKVSLETEHLQRAQGKQERKKGKDKRARCILDMKEREEDKGWEKGSEGGDKMKRDEGNQEKRKKEMEERDAGDERSEEEEGEEEEPEEGEKEEGGEEEEGTSEDQSREDEGDRQEKEGRREGKGRQEDGREGWKEGEEQEQEEEIEEGEEEEREGEEEGGEEEGEGEGEREEEGEGEEEGEGEEEGEGEEEGEGEEEGEGEEEGEGEEEGEGEEEGEGEEDGEGEEDGEGEEEGEGEEEGEREEDGEGEEDGEGEEEGEGEEEGEGEEEGEGEEEGEGEGEEEGEGEWEGEEEGEGEEEGEGEEEGEGEEEGEGEEEGEGEEEGGEDDEGEELEKKKGDITEEEEEEEEGQEGDEREREEHGSCEDDVEEDKTYDREEGEYKKAIGKVADNESQEDRKQSPKVSKINGSMKYGRHGTYSEKPITNLGKTQPSKMPMESRQLVENGLLGSERFWSDVLPLYLELK
B2 gave a fold higher level co-immunoprecipitated compared with the WT protein [2] of 50 times.

B3: Nephrocystin-5 (NPHP5) (other, mouse, UniProt Q8BP00 1-598, looked up)
chain: MKPAGTDPRILSLAAEVAKSPEQNVPVILLKLKEIINNTPLGSSELKKVKQDIYCYDLIQYCLLVLSQDSSRIQGGWSTISQLTQILSHCCVGLEPGEDGEEFYKELLPSAAENFLILGRRLQTCFINATKGEEQDKLLHFFQIVTDSLFWLLGGHVQLIQNVLQSDHFLHLLQTDNVQIGASVMTLLQNILQINSGNLLKIEGKALHSILDEILFKLLSTPSPVIRSTATKLLLVLAESHQEILILLRLSACYKGLRSLLNKQETLTEFSRELRQLVDLLTPKIHQEVEEQKLHKAACLIQAYWKGFQTRKRLKKLPSAVIALQRSFRSKRTKMMLELNRQKEEEDLRLKLQLQRQRAMRLSRESRLNMLEIIHPGQVEKYNREMEEKSALTIQKHWRGYRERKNFRQQRPSLTEYKAAVTLQRAVLKFLAKCRKKKKLFASWHGLQELTDARRVELKQQVDDYVKRHPCSQMSEAASRELHAQAQERLQHYFMGRAIEERAQQHREALMAQISTNIEQLMKAPSLKEAEGKEPEQFLSRSRPVAAKAKQAHLTTLKHIQAPWWKKLGEEPGDEVDVPKDELSIDLGMLFIGGTKPP
B3: no binding [1].

— patent publication US20100136537A1, “PHOTORECEPTOR PRECURSOR CELLS” (THE REGENTS OF THE UNIVERSITY OF MICHIGAN, priority 2006, published 2010)
